Results published in patent US20090169472A1, “METHODS AND COMPOSITIONS FOR TREATING IMMUNE DISORDERS” (CANCER RESEARCH TECHNOLOGY LTD., priority 2005, published 2009).
Oligonucleotides are written 5' to 3', each unit as a sugar letter and its base; * is a phosphorothioate linkage, no mark a phosphodiester; rarer units and linkages stand in square brackets, end groups in braces. Plain capitals give the bases only. r = 2'-OH (RNA)

Key:
Flt3L-DC = Flt3L-DC activation assay (cytokines in supernatant by sandwich ELISA); format: cell-based, mouse; details: for levels of IFNα compared with polyUs-21: at higher concentrations; for ability to stimulate TLR7: summary statement on oligonucleotides of Table 1; for IFNα induction by Flt3L-DC compared with polyUs-21 (reference TLR7 ligand): comparison in words; for fold less potent in inducing IFNα by Flt3L-DC than the 21-mer (polyUo-21): phosphodiester polyU RNA, shift in the dose response; for IFNα production: phosphodiester RNA of undefined length, previous experiments
Method: Flt3L-DC were generated from bone marrow cell suspensions in RPMI 1640 medium containing 10% fetal calf serum, 2 mM glutamine, 100 units/ml penicillin, 100 μg/ml streptomycin, 50 μM 2-mercaptoethanol and 50 ng/ml murine Flt3L (R&D systems) and were used at day 10 or 11 of cultures.
For stimulation with oligonucleotides, 2×10^5 Flt3L-DC were seeded in triplicate in 96-well-plates. Oligonucleotides were added and cells were cultured overnight in a final volume of 200 μl. Controls contained medium alone, 0.5 μg/ml CpG 1668, 100 mM loxoribine or 1 μM R848.
For stimulation with oligonucleotides other than CpG 1668, different doses of each test oligonucleotides were diluted in 150 mM NaCl solution and mixed with an equal volume of 150 mM NaCl solution+/−polytheylenimine (PEI; 3 μl/ml PEI were used irrespective of the RNA dose). After 15 min incubation at room temperature, oligonucleotide/PEI complexes were added to cells. Supernatants were collected after 18-20 hr of culture and levels of IFNα, IL-6 and IL-12 p40 were determined by sandwich ELISA.

[1] = system: human plasmacytoid DC (pDC); test: Human pDC activation assay (IFNα and IL-6 in supernatant by sandwich ELISA); format: cell-based; details: PEI complexes, different doses of polyUs 21-mer, polyAs 21-mer 1 μM, overnight culture
Method: Human pDC activation assays. R848 and RNA9.2DR complexed to LyoVec were from Invivogen. RNA oligonucleotides were purchased from Sigma Proligo. Human PMBCs were purified from normal human peripheral blood by Ficoll-Hypaque centrifugation. BDCA4^+ plasmacytoid DC were purified from total PBMC by positive selection using CD304^+ Microbeads and MiniMacs from MiltenyiBiotec. Oligonucleotides/PEI complexes, prepared as described above, were added to 1-2×10^5 pDC seeded in duplicate in 96-well-plates. Cells were cultured overnight in a final volume of 200 μl, supernatants were collected after 18-20 hr of culture and levels of IFNα and IL-6 were determined by sandwich ELISA.

[2] = oligonucleotide/PEI complexes, C57BL/6 Flt3L-DC, overnight culture, result in words

Molecule	IFNα induction by Flt3L-DC (Flt3L-DC; [2])	ability to stimulate TLR7 (Flt3L-DC)	further results
SSD29: phosphorothioate RNA 21-mer CCCCCCUUUUUUUUUUCCCCC, 10x U in a string, SEQ ID NO 25 (rC*rC*rC*rC*rC*rC*rU*rU*rU*rU*rU*rU*rU*rU*rU*rU*rC*rC*rC*rC*rC)	very potent in inducing IFNα	capable of stimulating TLR7	levels of IFNα compared with polyUs-21 (Flt3L-DC; PEI complexes): comparable to the polyUs-21 oligonucleotide
polyUo-21: polyU RNA 21-mer, phosphodiester bonds, SEQ ID NO 2 (UUUUUUUUUUUUUUUUUUUUU; unmodified RNA)	induced IFNα by Flt3L-DC in a dose dependent manner	capable of stimulating TLR7	IFNα induction by Flt3L-DC compared with polyUs-21 (reference TLR7 ligand) (Flt3L-DC; PEI complexes): induced similar IFNα; IFNα induction by Flt3L-DC (Flt3L-DC; free oligonucleotide given to culture without PEI): failed to induce IFNα
SSD13: phosphorothioate RNA 21-mer UUUCCCUUUCCCUUUCCCUUU, 4x triple U, SEQ ID NO 15 (rU*rU*rU*rC*rC*rC*rU*rU*rU*rC*rC*rC*rU*rU*rU*rC*rC*rC*rU*rU*rU)		capable of stimulating TLR7	
polyAs-21: polyA RNA 21-mer, phosphorothioate bonds, SEQ ID NO 26 (rA*rA*rA*rA*rA*rA*rA*rA*rA*rA*rA*rA*rA*rA*rA*rA*rA*rA*rA*rA*rA)	failed to induce IFNα		IFN-α production by human pDC [1]: failed to induce IFNα
polyUs-15: polyU RNA 15-mer, phosphorothioate bonds, SEQ ID NO 6 (rU*rU*rU*rU*rU*rU*rU*rU*rU*rU*rU*rU*rU*rU*rU)		capable of stimulating TLR7	IFNα induction by Flt3L-DC compared with polyUs-21 (reference TLR7 ligand) (Flt3L-DC; PEI complexes): indistinguishable from the response obtained with the 21-mer
SSD9: phosphorothioate RNA 21-mer CCCCCCCUUUCUUUCCUUUCC, 3x triple U, SEQ ID NO 13 (rC*rC*rC*rC*rC*rC*rC*rU*rU*rU*rC*rU*rU*rU*rC*rC*rU*rU*rU*rC*rC)		capable of stimulating TLR7	IFNα induction compared among SSD8, SSD9 and SSD10 (four, three or two uridine triplets) (Flt3L-DC; PEI complexes): Differences between oligonucleotides SSD8 and SSD9 were only marginal; IFNα induction by Flt3L-DC compared with polyUs-21 (reference TLR7 ligand) (Flt3L-DC; PEI complexes): lower levels of IFNα than the 21-mer oligonucleotide consisting entirely of uridine nucleotides
polyUo-10: polyU RNA 10-mer, phosphodiester bonds, SEQ ID NO 4 (UUUUUUUUUU; unmodified RNA)		capable of stimulating TLR7	fold less potent in inducing IFNα by Flt3L-DC than the 21-mer (polyUo-21) (Flt3L-DC; PEI complexes): approximately 20 ×
SSD15: phosphorothioate RNA 21-mer UUCCCUUCCCUUCCUUCCCUU, 5x double U with U at the end, SEQ ID NO 17 (rU*rU*rC*rC*rC*rU*rU*rC*rC*rC*rU*rU*rC*rC*rU*rU*rC*rC*rC*rU*rU)		capable of stimulating TLR7	
SSD8: phosphorothioate RNA 21-mer CCUUUCCUUUCUUUCCUUUCC, 4x triple U, SEQ ID NO 12 (rC*rC*rU*rU*rU*rC*rC*rU*rU*rU*rC*rU*rU*rU*rC*rC*rU*rU*rU*rC*rC)		capable of stimulating TLR7	IFNα induction compared among SSD8, SSD9 and SSD10 (four, three or two uridine triplets) (Flt3L-DC; PEI complexes): Differences between oligonucleotides SSD8 and SSD9 were only marginal; potency in inducing IFNα, no uridine at the ends (SSD8, SSD14) compared with uridine at the ends (SSD13, SSD15) (Flt3L-DC; PEI complexes): slightly more potent in inducing IFNα; shift of the dose response, no uridine at the ends (SSD8, SSD14) compared with uridine at the ends (SSD13, SSD15) (Flt3L-DC; PEI complexes): nearly half a logarithmic scale; IFNα induction by Flt3L-DC compared with polyUs-21 (reference TLR7 ligand) (Flt3L-DC; PEI complexes): lower levels of IFNα than the 21-mer oligonucleotide consisting entirely of uridine nucleotides
polyUo-15: polyU RNA 15-mer, phosphodiester bonds, SEQ ID NO 3 (UUUUUUUUUUUUUUU; unmodified RNA)		capable of stimulating TLR7	fold less potent in inducing IFNα by Flt3L-DC than the 21-mer (polyUo-21) (Flt3L-DC; PEI complexes): approximately 20 ×
polydUs-21: polyU DNA 21-mer (dU), phosphorothioate bonds, SEQ ID NO 9 (UUUUUUUUUUUUUUUUUUUUU; DNA, all phosphorothioate, T or U not given here)		capable of stimulating TLR7	
SSD21: phosphorothioate RNA 21-mer CCCCCUUUCUUUCUUUCCCCC, 3x triple U, one C apart, SEQ ID NO 18 (rC*rC*rC*rC*rC*rU*rU*rU*rC*rU*rU*rU*rC*rU*rU*rU*rC*rC*rC*rC*rC)		capable of stimulating TLR7	IFNα levels compared within the group SSD21-SSD25 (three uridine triplets, one to five cytosines apart) (Flt3L-DC; PEI complexes): induced the highest levels of IFNα in this group of oligonucleotides; IFNα induction by Flt3L-DC compared with polyUs-21 (reference TLR7 ligand) (Flt3L-DC; PEI complexes): less efficient in IFNα induction than polyUs-21
SSD27: phosphorothioate RNA 21-mer CUCUCUCUCUCUCUCUCUCUC, 10x single U, one C apart, SEQ ID NO 23 (rC*rU*rC*rU*rC*rU*rC*rU*rC*rU*rC*rU*rC*rU*rC*rU*rC*rU*rC*rU*rC)	comparably poor in inducing IFNα		
SSD24: phosphorothioate RNA 21-mer CCUUUCCCCUUUCCCCUUUCC, 3x triple U, four C apart, SEQ ID NO 21 (rC*rC*rU*rU*rU*rC*rC*rC*rC*rU*rU*rU*rC*rC*rC*rC*rU*rU*rU*rC*rC)		capable of stimulating TLR7	
SSD22: phosphorothioate RNA 21-mer CCCCUUUCCUUUCCUUUCCCC, 3x triple U, two C apart, SEQ ID NO 19 (rC*rC*rC*rC*rU*rU*rU*rC*rC*rU*rU*rU*rC*rC*rU*rU*rU*rC*rC*rC*rC)		capable of stimulating TLR7	
polydUo-21: polyU DNA 21-mer (dU), phosphodiester bonds, SEQ ID NO 8 (UUUUUUUUUUUUUUUUUUUUU; listed as RNA, chemistry not fully specified)	produced IFNα	capable of stimulating TLR7	potency in inducing IFNα compared with polyUo-21 (Flt3L-DC; at higher doses, PEI complexes): even more potent; potency in stimulating an IFNα response compared with polyUo-21 (Flt3L-DC; at lower doses, PEI complexes): less potent
C=CCn1c(=O)n([C@@H]2O[C@H](CO)[C@@H](O)[C@H]2O)c2nc(N)[nH]c(=O)c21 [loxoribine, reference compound]			IL-6 induction by Flt3L-DC (Flt3L-DC; ligands at concentrations of maximum cytokine induction, compared with polyUs-21/PEI): better inducers of IL-6 than polyUs-21
SSD23: phosphorothioate RNA 21-mer CCCUUUCCCUUUCCCUUUCCC, 3x triple U, three C apart, SEQ ID NO 20 (rC*rC*rC*rU*rU*rU*rC*rC*rC*rU*rU*rU*rC*rC*rC*rU*rU*rU*rC*rC*rC)		capable of stimulating TLR7	
polyA [reference compound]			IFNα production (Flt3L-DC): neither polyA nor polyC phosphodiester RNA of undefined length triggered IFNα production
polyTs-21: polyT RNA 21-mer, phosphorothioate bonds, SEQ ID NO 28 (TTTTTTTTTTTTTTTTTTTTT; RNA, all phosphorothioate, T or U not given here; further chemistry not fully specified)	unable to induce measurable levels of IFNα at any of the tested concentrations		
polyC [reference compound]			IFNα production (Flt3L-DC): neither polyA nor polyC phosphodiester RNA of undefined length triggered IFNα production
SSD14: phosphorothioate RNA 21-mer CCUUCCUUCCUUCCUUCCUUC, 5x double U, no U at the end, SEQ ID NO 16 (rC*rC*rU*rU*rC*rC*rU*rU*rC*rC*rU*rU*rC*rC*rU*rU*rC*rC*rU*rU*rC)		capable of stimulating TLR7	potency in inducing IFNα, no uridine at the ends (SSD8, SSD14) compared with uridine at the ends (SSD13, SSD15) (Flt3L-DC; PEI complexes): slightly more potent in inducing IFNα; shift of the dose response, no uridine at the ends (SSD8, SSD14) compared with uridine at the ends (SSD13, SSD15) (Flt3L-DC; PEI complexes): nearly half a logarithmic scale
SSD25: phosphorothioate RNA 21-mer CUUUCCCCCUUUCCCCCUUUC, 3x triple U, five C apart, SEQ ID NO 22 (rC*rU*rU*rU*rC*rC*rC*rC*rC*rU*rU*rU*rC*rC*rC*rC*rC*rU*rU*rU*rC)	hardly any measurable levels of IFNα were induced		
SSD28: phosphorothioate RNA 21-mer CCCCUUCUUCUUCUUCUUCCC, 5x double U, one C apart, SEQ ID NO 24 (rC*rC*rC*rC*rU*rU*rC*rU*rU*rC*rU*rU*rC*rU*rU*rC*rU*rU*rC*rC*rC)	very potent in inducing IFNα	capable of stimulating TLR7	levels of IFNα compared with polyUs-21 (Flt3L-DC; PEI complexes): comparable to the polyUs-21 oligonucleotide
SSD10: phosphorothioate RNA 21-mer CCCCCCCUUUCUUUCCCCCCC, 2x triple U, SEQ ID NO 14 (rC*rC*rC*rC*rC*rC*rC*rU*rU*rU*rC*rU*rU*rU*rC*rC*rC*rC*rC*rC*rC)		capable of stimulating TLR7	IFNα induction compared among SSD8, SSD9 and SSD10 (four, three or two uridine triplets) (Flt3L-DC; PEI complexes): slightly reduced; IFNα induction by Flt3L-DC compared with polyUs-21 (reference TLR7 ligand) (Flt3L-DC; PEI complexes): lower levels of IFNα than the 21-mer oligonucleotide consisting entirely of uridine nucleotides
